The record followed here is patent US8431704B2, “Quinoline or isoquinoline substituted P2X7 antagonists” (Janssen Pharmaceutica NV, priority 2008, dated 2013).

Bounds are passed on as bounds.

This assay concerns the target T1, hP2X7 (Homo sapiens, UniProt Q99572).
T1 construct: expressed in transfected cells; host or cells: 1321N1 astrocytoma cells
T1 sequence (Q99572 1-595): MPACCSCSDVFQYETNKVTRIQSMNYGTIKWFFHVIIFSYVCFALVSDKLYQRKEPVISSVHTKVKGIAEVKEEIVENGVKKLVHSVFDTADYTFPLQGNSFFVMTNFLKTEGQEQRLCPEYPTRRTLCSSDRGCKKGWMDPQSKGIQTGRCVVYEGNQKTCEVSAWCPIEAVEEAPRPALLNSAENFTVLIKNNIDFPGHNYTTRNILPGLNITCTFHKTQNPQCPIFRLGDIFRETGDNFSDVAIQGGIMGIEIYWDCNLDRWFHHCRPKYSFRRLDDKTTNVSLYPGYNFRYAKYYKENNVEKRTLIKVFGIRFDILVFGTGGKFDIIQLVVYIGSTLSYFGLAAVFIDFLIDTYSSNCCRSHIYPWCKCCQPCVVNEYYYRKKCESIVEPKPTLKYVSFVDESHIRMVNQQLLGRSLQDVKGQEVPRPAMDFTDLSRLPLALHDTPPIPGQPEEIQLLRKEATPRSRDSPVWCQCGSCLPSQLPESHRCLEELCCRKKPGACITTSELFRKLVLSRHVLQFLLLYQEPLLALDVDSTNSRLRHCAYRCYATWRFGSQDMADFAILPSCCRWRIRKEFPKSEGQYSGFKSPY
Nature of the assay: P2X7 antagonism: ligand-induced Ca2+ flux in 1321N1 astrocytoma cells overexpressing hP2X7. The class given is cell-based. To be noted: pIC50 = -log(IC50), read-out: hP2RX7pIC50 (mean pIC50 values) (converted). The gist of the method:
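Intracellular Ca2+ tracked with a quenched Ca2+-sensitive fluorescent dye kit (excitation 488 nm, emission 510-560 nm) in 1321N1 cells, before and after agonist addition in presence of antagonist. Effects expressed as % control and IC50.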

`O=C(NCC(c1cnc(N2CCCC2)nc1)N1CCOCC1)c1cccc2nc(NCC3CC3)ccc12` (centres unmarked) [Compound 264]: the IC50 is 77.6 nM.

`CC(C)c1ncc(C(CNC(=O)c2cccc3nc(N4CCN(C(C)C)CC4)ccc23)N2CCC(F)(F)CC2)cn1` (centres unmarked) [Compound 299]: the IC50 was 110 nM.

With `CC(C)N1CCN(c2ccc3c(C(=O)NCC(c4cnc(C(F)(F)F)nc4)N4CCOCC4)cccc3n2)CC1` (centres unmarked) [Compound 181], the IC50 was 93.3 nM.

As for `CC(C)OC1CCN(c2ccc3c(C(=O)NCC(c4cnc(C(F)(F)F)nc4)N4CCOCC4)cccc3n2)CC1` (centres unmarked) [Compound 277], the IC50 is 46.8 nM.

For the compound `CCc1cc2cc(C(=O)NCC(c3ccc(C(F)(F)F)nc3)N3CCC(F)(F)CC3)ccc2nc1C` (centres unmarked) [Compound 24], the IC50 was 5250 nM.

In the case of `O=C(NCC(c1cnc(C(F)(F)F)nc1)N1CCOCC1)c1cccc2nc(N3CCC(F)(F)CC3)ccc12` (centres unmarked) [Compound 177], the IC50 is 47.9 nM.

As to `CC(=O)N1CCN(c2ncc(C(CNC(=O)c3cccc4nc(N5CCOCC5)ccc34)N3CCC(F)(F)CC3)cn2)CC1` (centres unmarked) [Compound 250], the IC50 was 77.6 nM.

On to `CC(C)c1ncc(C(CNC(=O)c2cccc3nc(NCC4CC4)ccc23)N2CCOCC2)cn1` (centres unmarked) [Compound 244], for which the IC50 was 79.4 nM.

As for `O=C(NCC(c1cncnc1)N1CCC(F)(F)CC1)c1cccc2nc(N3CCOCC3)ccc12` (centres unmarked) [Compound 268], the IC50 was 33.1 nM.

Turning to `O=C(NCC(c1cnc(NC2CC2)nc1)N1CCC(F)(F)CC1)c1cccc2nc(N3CCCC3)ccc12` (centres unmarked) [Compound 216], the IC50 is 100 nM.

`O=C(NCC(c1cnc(C(F)(F)F)nc1)N1CCCOCC1)c1cccc2nc(NCCCO)ccc12` (centres unmarked) [Compound 90]: the IC50 is 87.1 nM.

For the compound `CC(C)c1ncc(C(CNC(=O)c2cccc3nc(N4CCOCC4)ccc23)N2CCC(F)(F)CC2)cn1` (centres unmarked) [Compound 265], the IC50 was 64.6 nM.

Turning to `O=C(NCC(c1cnc(OCC2CC2)nc1)N1CCC(F)(F)CC1)c1cccc2nc(N3CCCC3)ccc12` (centres unmarked) [Compound 304], the IC50 was 28.2 nM.

For `Cc1ncc(C(CNC(=O)c2cccc3nc(OC(C)C)ccc23)N2CCOCC2)cn1` (centres unmarked) [Compound 117], the IC50 was 182 nM.

`O=C(NCC(c1ccc(C(F)(F)F)nc1)N1CCC(F)(F)CC1)c1cccc2ncccc12` (centres unmarked) [Compound 1]: the IC50 was 58.9 nM.

On to `O=C(NCC(c1cnc(C2CCCC2)nc1)N1CCC(F)(F)CC1)c1cccc2nc(NCC3CC3)ccc12` (centres unmarked) [Compound 293], for which the IC50 is 105 nM.

As for `O=C(NCC(c1ccc(C(F)(F)F)nc1)N1CCC(c2ccccc2)CC1)c1cccc2ncccc12` (centres unmarked) [Compound 27], the IC50 was more than 10000 nM.

In the case of `O=C(NCC(c1cnc(N2CCCC2)nc1)N1CCC(F)(F)CC1)c1cccc2nc(N3CCOCC3)ccc12` (centres unmarked) [Compound 176], the IC50 was 186 nM.

In the case of `CC(=O)N1CCN(c2ncc(C(CNC(=O)c3cccc4nc(N5CCN(C(C)C)CC5)ccc34)N3CCC(F)(F)CC3)cn2)CC1` (centres unmarked) [Compound 309], the IC50 was 74.1 nM.

As for `CC(C)Oc1ncc(C(CNC(=O)c2cccc3nc(NCC4CC4)ccc23)N2CCC(F)(F)CC2)cn1` (centres unmarked) [Compound 248], the IC50 is 33.1 nM.

With `COc1cc(C(=O)NCC(c2ccc(C(F)(F)F)nc2)N2CCC(F)(F)CC2)nc2ccccc12` (centres unmarked) [Compound 12], the IC50 was 3240 nM.

On to `CC1CCCCN1C(CNC(=O)c1cccc2ncccc12)c1cnc(C(F)(F)F)nc1` (centres unmarked) [Compound 73], for which the IC50 is 50.1 nM.

Take `O=C(NCC(c1cnc(N2CCCC2)nc1)N1CCC(F)(F)CC1)c1cccc2nc(N3CCCC3)ccc12` (centres unmarked) [Compound 225]: the IC50 is 102 nM.

As for `Nc1ncc(C(CNC(=O)c2cccc3nc(N4CCOCC4)ccc23)N2CCC(F)(F)CC2)cn1` (centres unmarked) [Compound 187], the IC50 was 87.1 nM.

Consider `O=C(NCC(c1ccc(C(F)(F)F)nc1)N1CCC(F)(F)CC1)c1cccc2ncccc12` (single isomer, unassigned) [Compound 10], for which the IC50 is 43.7 nM.

As for `CC(C)c1ncc(C(CNC(=O)c2cccc3nc(N4CCOCC4)ccc23)N2CCOCC2)cn1` (centres unmarked) [Compound 230], the IC50 is 141 nM.
